One assay has as its system BJ-5ta. Put plainly: MTS cell viability assay. The format is cell-based. As to conditions: 72 h. As for the experimental part:
Briefly, MCF-10A and BJ-5ta were seeded in 96-well culture plates, and after 24 h incubation, treated with various ranges of concentrations of tested compounds (10–100 μg/mL) for 72 h. At the same time, HUVECs were seeded in a gelatine-coated 96-well plate and treated with the same aliquots of indicated compounds in the presence or absence of VEGF (Vascular endothelial growth factor) (25 ng/mL) for 48 h. Cell viability was evaluated by measuring the absorbance at 490 nm using the automated CytationTM 3 Cell Imaging Multi-Mode Reader (Biotek, Winooski, VT, USA). Three independent experiments were performed at different intervals.

The next assay concerns HUVECs. Put plainly: BrdU cell proliferation assay. The format is cell-based, human. The settings on record: 48 h. As for the experimental part:
(§1) The MCF-10A (5 × 10^3/well), BJ-5ta (5 × 10^3/well) and HUVEC cells (4 × 10^3/well) were plated in a 96-well plate in 80 μL suitable medium. HUVECs were seeded onto a gelatine-coated plate. After 24 h, cells were treated with the range of concentration 10–100 μg/mL for 72 h (MCF-10A, BJ-5ta), or in the presence or absence of 25 ng/mL of VEGF for 48 h (HUVECs). After 48 h (MCF-10A, BJ-5ta) or 24 h (HUVECs), BrdU labelling solution was added into cells and incubated for another 24 h at 37 °C, followed by fixation and incubation with anti-BrdU peroxidase conjugate solution for an additional 1.5 h at room temperature (RT). Then, cells were washed with washing buffer PBS and incubated with substrate solution TMB for 5 to 30 min according to colour intensity. Finally, we added stop solution (1 M H2SO4) and incorporated BrdU was detected with an automated CytationTM 3 Cell Imaging Multi-Mode Reader at 450 nm (reference wavelength: 690 nm). Three independent experiments were performed at different intervals.

Another assay relates to MCF-10A. Kind of assay: BrdU cell proliferation assay. The format is cell-based, human. As to conditions: 72 h. As for the experimental part: as §1
Assay [1] concerns N-cadherin in TGF-β-stimulated MCF-10A cells. Kind of assay: N-cadherin expression, immunofluorescence staining. The assay is classed as cell-based, human. The settings on record: IC10, 72 h, compared to TGF-β alone. As for the experimental part: (§2) The MCF-10A and BJ-5ta cells were seeded and cultivated for 24 h in a complete medium. One day after seeding, 30 ng/mL of TGF-β was added and cultivated for 7 days (d). TGF-β was added to induce epithelial–mesenchymal transition in tested cell lines. Lichen extract P. furfuracea (L.) Zopf and its metabolite physodic acid were added at time 0 h and then incubated for 24, 48 and 72 h for various analyses, as described in Figure 1.
(§3) The MCF-10A cells at a density of 2 × 10^3/cm^2, plated on 22 mm^2 glass coverslips, were stimulated for 7 days with 30 ng/mL of TGF-β. […] After treatment, cells were washed with PBS, fixed with 4% paraformaldehyde (pH 7.2) for 10 min, permeabilised by 0.1% Triton X-100 (Sigma-Aldrich) for 10 min at RT and then washed three) times with PBS for 5 min. Glass coverslips were then incubated with Swine serum (1:30) for 30 min for blocking non-specific binding. Primary antibodies were diluted according to the manufacturer’s instructions (Table 2) and transferred to coverslips for 90 min. […] All coverslips were mounted in Vectashield (Cole-Parmer, Illinois, USA) and immunofluorescence pictures were taken with the same exposition settings by the Nikon Eclipse 90i fluorescence microscope (Nikon, Tokyo, Japan) equipped with filter cubes for FITC and DAPI. Images were then analysed using ImageJ (NIH) software.

Assay [2] deals with E-cadherin in TGF-β-stimulated MCF-10A cells. Put plainly: E-cadherin expression (Western blot, flow cytometry, immunofluorescence). As to conditions: TGF-β-stimulated groups. The format is cell-based, human. As for the experimental part: as §2
The MCF-10A cells (1 × 10^4/well) were seeded in Petri dishes and stimulated with […] TGF-β for 7 days. […] After detaching, using Trypsin/EDTA, cells were harvested and pelleted by centrifugation at 1200 rpm for 5 min. […] All samples were analysed using a FACS Calibur flow cytometer (Becton Dickinson, San Jose, CA, USA). […]
(§4) Proteins isolated from MCF-10A and BJ-5ta cell lysates were determined by the Pierce® BCA Protein Assay Kit (Thermo Scientific, Rockford, IL, United States), using bovine serum albumin (BSA) as the standard, and measured by an automated Cytation™ 3 Cell Imaging Multi-Mode Reader (Biotek) at a wavelength of 570 nm. […] After incubation, the membrane was again washed in TBS-Tween (3 × 5 min), and the expression of the protein was detected using a chemiluminescent ECL substrate (Thermo Fisher Scientific) and MF-ChemiBIS 2.0 Imaging System (DNR BIO-Imaging Systems, Jerusalem, Israel). […]
(A western blot detects proteins with antibodies after separation by electrophoresis.)

Assay [3] relates to fibronectin in TGF-β-stimulated MCF-10A cells. Put plainly: Fibronectin expression, immunofluorescence. As to conditions: IC10, TGF-β-stimulated MCF-10A. The format is cell-based, human. As for the experimental part:
as §2, §3

The test system is the same in assay [4]. Kind of assay: Fibronectin expression, Western blot. The assay is classed as cell-based, human. The settings on record: IC10 and IC50, dose-dependent manner. As for the experimental part:
as §2
as §4, with “nm. Proteins were separated on SDS-PAA gel (12%) at 100 V for 2 h and then transferred to a polyvinylidene difluoride (PVDF) membrane using the iBlot dry blotting system (Thermo Scientific, Rockford, IL, United States).” for “nm.”, “Israel). The detected band was then analysed densitometrically using the Image Studio Lite software (LI-COR Biosciences, Lincoln, NE, USA).” for “Israel).”

Assay [5] relates to N-cadherin, fibronectin, α-SMA, Slug in BJ-5ta. Put plainly: Western blot of mesenchymal markers in TGF-β-stimulated fibroblasts. The format is cell-based. The settings on record: TGF-β-stimulated BJ-5ta, 48 and 72 h, time- and dose-dependent manner. As for the experimental part:
as §2
as §4, with “nm. Proteins were separated on SDS-PAA gel (12%) at 100 V for 2 h and then transferred to a polyvinylidene difluoride (PVDF) membrane using the iBlot dry blotting system (Thermo Scientific, Rockford, IL, United States).” for “nm.”, “Israel). The detected band was then analysed densitometrically using the Image Studio Lite software (LI-COR Biosciences, Lincoln, NE, USA).” for “Israel).”

The next assay deals with Slug in BJ-5ta. Kind of assay: Western blot of Slug in TGF-β-stimulated fibroblasts. The assay is classed as cell-based. As to conditions: 72 h treatment. As for the experimental part:
as §2
as §4, with “nm. Proteins were separated on SDS-PAA gel (12%) at 100 V for 2 h and then transferred to a polyvinylidene difluoride (PVDF) membrane using the iBlot dry blotting system (Thermo Scientific, Rockford, IL, United States).” for “nm.”, “Israel). The detected band was then analysed densitometrically using the Image Studio Lite software (LI-COR Biosciences, Lincoln, NE, USA).” for “Israel).”

Results on one compound are retold here after paper PMC8000760, “Potential Effect of Pseudevernia furfuracea (L.) Zopf Extract and Metabolite Physodic Acid on Tumour Microenvironment Modulation in MCF-10A Cells” (Biomolecules, 2021).

Regarding `CCCCCC(=O)Cc1cc(O)cc2c1C(=O)Oc1cc(O)c(C(=O)O)c(CCCCC)c1O2` [Phy, physodic acid], the IC10 in the assay with BJ-5ta turned out to be 46.35 ± 0.39 µM; in the assay on HUVECs it was 89.53 ± 3.21 µM; in the assay on MCF-10A, 63.63 ± 3.40 µM. Besides, the IC50 worked out at 83.2 ± 1.02 µM with BJ-5ta; 124 ± 5.33 µM in the assay on HUVECs (Homo sapiens, HUVEC); 155 ± 7.4 µM with MCF-10A (Homo sapiens). Besides, the “N-cadherin expression, immunofluorescence” value in assay [1] is “significant decrease”. Further, in [2], the “restoration of E-cadherin” value is on record as “did not observe a significant restoration”. In [3], the “fibronectin expression, immunofluorescence” value was “downregulation”. Moreover, the “levels of fibronectin, Western blot” value in assay [4] is “downregulated”. Further, the mesenchymal markers expression result in assay [5] was “significantly decrease”. In addition, in the assay with Slug in BJ-5ta, the Slug protein result is recorded as “downregulation”.

What is called IC10 is the concentration at which the effect reaches the 10% level. The term IC50 denotes the concentration that gives 50% inhibition.
